How the values were obtained:
[1] = target: T1, Human IBAT (Homo sapiens, UniProt Q12908); assay: IBAT (h/m) assay, human IBAT-overexpressing cells, 3H-taurocholic acid uptake; type: cell-based; conditions: 0.25 μM 3H-taurocholic acid and 5 μM cold taurocholic acid, 20 minutes, read-out: hIBAT IC50
T1 construct: expressed in transfected cells; Puromycin-selected
T1 sequence (Q12908 1-348): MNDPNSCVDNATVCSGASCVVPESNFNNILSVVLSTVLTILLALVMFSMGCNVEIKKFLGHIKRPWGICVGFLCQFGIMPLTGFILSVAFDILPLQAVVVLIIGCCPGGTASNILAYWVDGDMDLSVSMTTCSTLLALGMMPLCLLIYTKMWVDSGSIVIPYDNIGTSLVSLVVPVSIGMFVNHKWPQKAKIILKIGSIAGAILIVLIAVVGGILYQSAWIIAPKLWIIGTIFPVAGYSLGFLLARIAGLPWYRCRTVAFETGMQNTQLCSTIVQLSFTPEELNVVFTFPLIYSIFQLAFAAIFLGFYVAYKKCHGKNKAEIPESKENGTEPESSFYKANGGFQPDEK
Method in brief: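 Human or mouse IBAT-overexpressing cells, seeded 48 h before the assay, were incubated 20 min at 37 °C with 0.25 μM 3H-taurocholic acid plus 5 μM cold taurocholic acid and inhibitor (10-point 3-fold series from 10 μM top, 0.2% DMSO final), in duplicate. After ice stop and washes with 1 mM cold taurocholate, uptake was read by scintillation counting.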

[2] = Bidirectional permeability assay (Caco-2 cells); type: in vitro ADME; conditions: human, Caco-2, absorptive direction (A2B), 10 μM in FaSSIF buffer
Experimental: Bidirectional Permeability Assay (Caco-2 Cells)
Caco-2 cells (Evotec) were seeded at a density of 70,000 cells/well in Millicell® 24-well cell culture insert plates and maintained in an incubator (37° C., 5% CO2, 95% RH) for 21 days with media change on alternate days.
Stock solutions (10 mM) of the test compounds, atenolol (low permeability marker), propranolol (high permeability marker) and digoxin (substrate for P-gp transport pathway) were prepared in dimethylsulfoxide (DMSO). An intermediate stock solution (1 mM) was prepared by diluting 10 μL of 10 mM master stock solution with 90 μL of neat DMSO. A working stock solution (10 μM) was prepared by diluting 50 μL of 1 mM with 4950 μL of FaSSIF buffer. Post addition of compounds to the FaSSIF, samples were subjected to sonication for 2 hours, and centrifuged at 4000 RPM for 30 minutes at 37° C. The 4 mL of resultant supernatant was directly used in the assay. The final DMSO concentration in the transport experiments was 1%.
On the day of assay, Caco-2 monolayers were washed twice with transport buffer (HBSS, pH 7.4) and pre-incubated for 30 min (37° C., 5% CO2, 95% RH) in an incubator. The electrical resistance of the monolayers was measured with a Millicell®—ERS system. Monolayers with trans-epithelial electrical resistance (TEER) values greater than 350 ohm·cm^2 were selected for the assay.
The assay was conducted in absorptive direction (A2B) and secretory (B2A) directions. Transport experiments were initiated by addition of transport assay buffer (FaSSIF buffer prepared in HBSS) consisting of compounds to the donor compartment (apical chamber A-B; basolateral chamber B-A) in duplicate (n=2) wells. Drug free HBSS buffer (pH 7.4) containing 1% bovine serum albumin (BSA) was introduced to the receiver (A-B-basolateral; B-A-Apical) compartments. The volumes of apical and basolateral compartments were 0.4 and 0.8 mL, respectively. After adding dosing solution, plates were incubated in an incubator for 120 minutes at 37° C. After 120 minutes, donor and receiver samples were collected and matrix matched (1:1, 30 μL study sample+30 μL blank buffer) with the opposite buffer. Dosing samples matrix matched (1:1, 30 μL study sample+30 μL blank buffer) with the opposite buffer. Samples were processed by adding acetonitrile containing internal standard (60 μL study sample+200 μL acetonitrile containing internal standard—Tolbutamide, 500 ng/mL). Samples were vortexed and centrifuged at 4000 rpm for 10 minutes. The obtained supernatant (100 μL) was diluted with 100 μL of water and transferred to fresh 96 well plates. The concentration of compounds in the samples was analyzed by liquid chromatography tandem mass spectrometry (LC-MS/MS) method using discovery grade bio-analytical method, as applicable.
The mean apparent permeability (Papp,×10^−6 cm/sec) of the test compounds, atenolol, propranolol and digoxin were calculated as follows:
[formula] where dq/dt=rate of transport (rate of transport of compound in the receiver compartment), C0=initial concentration in the donor compartment, A=surface area of the effective filter membrane.

SMILES | IC50 [1] [nM] | Papp A→B at 120 min, 10 μM [2] [×10⁻⁶ cm/s]
CCCCC1(CC)CN(c2ccccc2)c2cc(Br)c(OCCC(=O)O)cc2S(=O)(=O)C1 (racemic) [Example 1, 3-((7-Bromo-3-butyl-3-ethyl-1,1-dioxido-5-phenyl-2,3,4,5-tetrahydro-1,5-benzothiazepin-8-yl)oxy)propanoic acid] | 18 | 13.4
CCCCC1(CCCC)CN(c2ccccc2)c2cc(SC)c(OCC(O)C(=O)O)cc2S(=O)(=O)C1 (racemic) [Example 9, 3-((3,3-Dibutyl-7-(methylthio)-1,1-dioxido-5-phenyl-2,3,4,5-tetrahydro-1,5-benzothiazepin-8-yl)oxy)-2-hydroxypropanoic acid] | 3 | 1.6
CCCCC1(C)CN(c2ccccc2)c2cc(N(C)C)c(OCCC(=O)O)cc2S(=O)(=O)C1 (single isomer, unassigned) [29, enantiomer 1] | 5 | 20.5
CCCCC1(CC)CN(c2ccccc2)c2cc(Cl)c(OC(C)CC(=O)O)cc2S(=O)(=O)C1 (single isomer, unassigned) [30, diastereomer 1] | 22 | 9
CCCCC1(C)CN(c2ccccc2)c2cc(SC)c(OCC(O)C(=O)O)cc2S(=O)(=O)C1 (single isomer, unassigned) [32, diastereomer 1] | 3 | 3.3
CCCCC1(CC)CN(c2ccccc2)c2cc(SC)c(OCC(C)(F)C(=O)O)cc2S(=O)(=O)C1 (single isomer, unassigned) [35, diastereomer 1] | 4 | 4
CCCCC1(CC)CN(c2ccccc2)c2cc(SC)c(OCC(C)(O)C(=O)O)cc2S(=O)(=O)C1 (single isomer, unassigned) [48, diastereomer 2] | 16 | 3.2
CCCCC1(CC)CN(c2ccccc2)c2cc(Br)c(OCCC(=O)O)cc2S(=O)(=O)C1 (single isomer, unassigned) [Example 2, 3-((7-bromo-3-butyl-3-ethyl-1,1-dioxido-5-phenyl-2,3,4,5-tetrahydro-1,5-benzothiazepin-8-yl)oxy)propanoic acid] | 6 | 3.4
CCCCC1(CC)CN(c2ccccc2)c2cc(Cl)c(OCCC(=O)O)cc2S(=O)(=O)C1 (single isomer, unassigned) [Example 6, 3-((3-butyl-7-chloro-3-ethyl-1,1-dioxido-5-phenyl-2,3,4,5-tetrahydro-1,5-benzothiazepin-8-yl)oxy)propanoic acid] | 17 | 13.6
CCCCC1(CCCC)CN(c2ccccc2)c2cc(SC)c(OCC(O)C(=O)O)cc2S(=O)(=O)C1 (single isomer, unassigned) [Example 10, 3-((3,3-dibutyl-7-(methylthio)-1,1-dioxido-5-phenyl-2,3,4,5-tetrahydro-1,5-benzothiazepin-8-yl)oxy)-2-hydroxypropanoic acid] | 1 | 2.1
CCCCC1(CCCC)CN(c2ccccc2)c2cc(SC)c(OCC(O)C(=O)O)cc2S(=O)(=O)C1 (single isomer, unassigned) [Example 11, 3-((3,3-dibutyl-7-(methylthio)-1,1-dioxido-5-phenyl-2,3,4,5-tetrahydro-1,5-benzothiazepin-8-yl)oxy)-2-hydroxypropanoic acid] | 4 | –
CCCCC1(CC)CN(c2ccccc2)c2cc(SC)c(OCCC(=O)O)cc2S(=O)(=O)C1 (single isomer, unassigned) [Example 13, 3-((3-butyl-3-ethyl-7-(methylthio)-1,1-dioxido-5-phenyl-2,3,4,5-tetrahydro-1,5-benzothiazepin-8-yl)oxy)propanoic acid] | 4 | 10.3
CCCCC1(C)CN(c2ccccc2)c2cc(SC)c(OCCC(=O)O)cc2S(=O)(=O)C1 (single isomer, unassigned) [Example 24, 3-((3-butyl-3-methyl-7-(methylthio)-1,1-dioxido-5-phenyl-2,3,4,5-tetrahydro-1,5-benzothiazepin-8-yl)oxy)propanoic acid] | 7 | 22.5
CCCCC1(CCCC)CN(c2ccccc2)c2cc(Br)c(OCCC(=O)O)cc2S(=O)(=O)C1 [Example 4, 3-((7-Bromo-3,3-dibutyl-1,1-dioxido-5-phenyl-2,3,4,5-tetrahydro-1,5-benzothiazepin-8-yl)oxy)propanoic acid] | 26 | 2.2
CCCCC1(CCCC)CN(c2ccccc2)c2cc(SC)c(OCCC(=O)O)cc2S(=O)(=O)C1 [Example 15, 3-((3,3-dibutyl-7-(methylthio)-1,1-dioxido-5-phenyl-2,3,4,5-tetrahydro-1,5-benzothiazepin-8-yl)oxy)propanoic acid] | 32 | 9.7
CCCCC1(CC)CN(c2ccccc2)c2cc(SC)c(OCC(C)(F)C(=O)O)cc2S(=O)(=O)C1 (stereo not shown) [Example 34, 3-((3-butyl-3-ethyl-7-(methylthio)-1,1-dioxido-5-phenyl-2,3,4,5-tetrahydro-1,5-benzothiazepin-8-yl)oxy)-2-fluoro-2-methylpropanoic acid] | 12 | 5.4
